Where “and” joins values, the source holds several entries; their conditions need not be identical. Equal entries are not always repeated.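 Where inhibition never reached the appropriate level, the endpoint shown equals the highest concentration tested. Otherwise, values were interpolated linearly from a five-concentration, 48-hour dose response in 96-well plates. Here, GI50 denotes the concentration required for 50% inhibition of growth. TGI: concentration producing complete growth inhibition.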
Legend:
Experiment in all cases: growth of human tumour cells (NCI), 48 h
SNB-19 CNS = test system: SNB-19 CNS
SR leukemia = test system: SR leukemia
SK-MEL-5 melanoma = test system: SK-MEL-5 melanoma
DU-145 prostate = test system: DU-145 prostate
HCT-116 colon = test system: HCT-116 colon
OVCAR-4 ovarian = test system: OVCAR-4 ovarian
MCF7 breast = test system: MCF7 breast
MALME-3M melanoma = test system: MALME-3M melanoma
UACC-257 melanoma = test system: UACC-257 melanoma
UACC-62 melanoma = test system: UACC-62 melanoma

SMILES | GI50 (SNB-19 CNS) [µM] | TGI (SNB-19 CNS) | GI50 (SR leukemia) [µM] | TGI (SR leukemia) | GI50 (SK-MEL-5 melanoma) [µM] | TGI (SK-MEL-5 melanoma) | GI50 (DU-145 prostate) [µM] | TGI (DU-145 prostate) | GI50 (HCT-116 colon) [µM] | TGI (HCT-116 colon) | GI50 (OVCAR-4 ovarian) [µM] | TGI (OVCAR-4 ovarian) [µM] | GI50 (MCF7 breast) [µM] | TGI (MCF7 breast) | GI50 (MALME-3M melanoma) [µM] | TGI (MALME-3M melanoma) | GI50 (UACC-257 melanoma) [µM] | TGI (UACC-257 melanoma) | GI50 (UACC-62 melanoma) [µM] | TGI (UACC-62 melanoma)
CC1=C/C(O)CC(=O)Cc2nc(co2)C(=O)N2CCC=C2C(=O)OC(C(C)C)C(C)/C=C\C(=O)NC/C=C\1 (centres undefined) | 18.1 | 40.3 µM and > 100 µM | > 100 | > 100 µM and 44.6 µM | 10.3 | 29.3 µM and > 100 µM | 18.5 | 45.2 µM and > 100 µM | 3.63 | 14.8 µM and 28.1 µM | 16.1 | > 100 | 5.89 | 25.1 µM and 41.2 µM | 23.1 | > 65.9 µM and 25.2 µM | 12.6 | 35.5 µM and > 100 µM | 20.1 | > 57.6 µM and 32.3 µM
CCOC(=O)Nc1ccc(C(=O)/C=C/c2ccccc2)cc1 | 26.4 | > 100 µM | 3.68 | > 100 µM | 27.1 | > 100 µM | 22.8 | 85.1 µM | 3.31 | 11.4 µM | 43.8 | > 100 | 3.14 | 33.9 µM | 77.4 | > 100 µM | 55 | > 100 µM | 20.1 | > 100 µM
CN(C)CCCN1c2ccc(O)cc2Sc2ccc(Cl)cc21 | – | 27.6 µM | – | 15.8 µM | – | 28.2 µM | – | 31.8 µM | – | 20.1 µM | – | 25.5 | – | 26.5 µM | – | 24 µM | – | 4.14 µM | – | 21.8 µM
Cc1ccc(NC(=O)N2CCCCC2)cc1[N+](=O)[O-] | > 100 | > 100 µM | > 100 | > 100 µM | > 100 | > 100 µM | > 100 | > 100 µM | > 100 | > 100 µM | > 100 | > 100 | > 100 | > 100 µM | > 100 | > 100 µM | > 100 | > 100 µM | > 100 | > 100 µM
CC(C)c1ccc(/C=N/N=C(N)N)cc1 | 4.77 | 17.4 µM | 3.31 | 12.7 µM | 2.54 | 8.16 µM | 11.2 | 23.8 µM | 3.34 | 11.8 µM | 10.3 | 23.2 | 2.76 | 10.1 µM | 5.56 | 21.1 µM | 8.74 | 24.1 µM | 7.73 | 21.3 µM
CNC(=O)/C(=C/c1ccc(OC)cc1)c1cc(OC)c(OC)c(OC)c1 | – | 54.8 µM | – | > 31.1 µM | – | > 36.6 µM | – | > 43 µM | – | > 72.4 µM | – | 99.7 | – | > 51.4 µM | – | > 54.5 µM | – | > 90 µM | – | > 48.6 µM
COC(=O)[C@@H]1[C@H](O)[C@H](C)[C@H](O)[C@H](C)/C=C\C=C(C)C(=O)Nc2c(C)c(OC(C)=O)c3c(c2O)C(=O)C(C)=C2OCOC(=C23)C(C)=C[C@@](C)(O)[C@H](O)[C@@H](C)[C@H]1OC(C)=O | – | > 100 µM | – | > 100 µM | – | > 100 µM | – | > 100 µM | – | 48.6 µM | – | > 100 | – | 65.3 µM | – | > 100 µM | – | 76.6 µM | – | –
OCc1ncc(-c2ccccc2)s1 | > 100 | > 100 µM | > 100 | > 100 µM | > 100 | > 100 µM | > 100 | > 100 µM | > 100 | > 100 µM | > 100 | > 100 | > 100 | > 100 µM | > 100 | > 100 µM | > 100 | > 100 µM | > 100 | > 100 µM
